These results are taken from patent US20090253709A1 (NATIONAL DEFENSE MEDICAL CENTER, priority 2008, published 2009).

Read-outs that look alike come from different tables or passages of the source.

One data set has as its system SK-MEL-5. In words: In vitro cytotoxicity, Development Therapeutics Program. In kind it is cell-based. As to conditions: SK-MEL-5, melanoma; 1.0×10^−5 M. An excerpt:
(§1) From the in vitro experiments of the Development Therapeutics Program of the Cancer Research Institute, the United States, it was known that the synthetic heterocyclic anthraquinone derivatives of the present invention have different inhibition levels to the different cancer cell lines under the concentration of 1.0×10^−5 M. Please refer to Table 2, which is the result of in vitro cytotoxicity of 2,7-disubstituted anthraquinone derivatives of the present invention.

The next data set relates to SF-539. Described as above. As to conditions: SF-539, CNS cancer; 1.0×10^−5 M. The format is cell-based.
Excerpt: as §1

The next data set relates to HCC-2998. Described as above. The format is cell-based. To be noted: HCC-2998, colon cancer; 1.0×10^−5 M.
Excerpt: as §1

The next data set relates to UO-31. The data set is described as above. In kind it is cell-based. To be noted: UO-31, renal cancer; 1.0×10^−5 M.
Excerpt: as §1

In another data set the test system is EKVX. Described as above. In kind it is cell-based. To be noted: non-small cell lung cancer, 1.0×10^−5 M.
Excerpt: as §1

The subject of a further data set is NCI-H23. The data set is described as above. To be noted: NCI-H23, non-small cell lung cancer; 1.0×10^−5 M. In kind it is cell-based.
Excerpt: as §1

A further data set relates to DU-145. The description is as above. In kind it is cell-based. To be noted: DU-145, prostate cancer; 1.0×10^−5 M.
Excerpt: as §1

Another data set relates to CAK1-1. Described as above. The format is cell-based. As to conditions: CAK1-1, renal cancer; 1.0×10^−5 M.
Excerpt: as §1

Another data set concerns TK-10. The data set is described as above. The format is cell-based. As to conditions: TK-10, renal cancer; 1.0×10^−5 M.
Excerpt: as §1

A further data set relates to MALME-3M. The data set is described as above. The format is cell-based. As to conditions: melanoma, 1.0×10^−5 M.
Excerpt: as §1

The test system of another data set is NCl-H460. The description is as above. The format is cell-based. To be noted: NCl-H460, non-small cell lung cancer; 1.0×10^−5 M.
Excerpt: as §1

Another data set deals with SF-295. The data set is described as above. As to conditions: SF-295, CNS cancer; 1.0×10^−5 M. The format is cell-based.
Excerpt: as §1

A further data set has as its system COLO 205. Described as above. The format is cell-based. As to conditions: COLO 205, colon cancer; 1.0×10^−5 M.
Excerpt: as §1

Another data set concerns HT29. The data set is described as above. In kind it is cell-based. As to conditions: HT29, colon cancer; 1.0×10^−5 M.
Excerpt: as §1

A further data set concerns HL-60(TB). The data set is described as above. To be noted: leukemia, 1.0×10^−5 M. The format is cell-based.
Excerpt: as §1

In a further data set the test system is OVCAR-4. The data set is described as above. In kind it is cell-based. To be noted: OVCAR-4, ovarian cancer; 1.0×10^−5 M.
Excerpt: as §1

A further data set is described as follows: MTT assay in BJ1 cells. The format is cell-based. As to conditions: human, hTERT-BJ1-PTERT(3.4)-SEAP cells, BJ1, read-out: MTT (Inhibition μM ± SD); for viability at 48 h, 1 µM: compound concentration 1 μM; for viability at 48 h, 10 µM: compound concentration 10 μM; for viability at 48 h, 100 µM: compound concentration 100 μM. The method, boiled down: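 After 48 h drug treatment, cells in DMEM/Medium 199 (4:1) with 10% FBS were given MTT (5 mg/ml stock) in serum-free medium for 4 h at 37 °C, lysed overnight in 20% SDS/50% DMF, and absorbance read at 570 nm.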
A general note: Tetrazolium assays rely on reduction of a dye to a coloured formazan, in cell work by metabolically active cells.

The next data set has as its system telomerase. Description: Telomeric repeat amplification protocol (TRAP). The format is biochemical. To be noted: compounds at 100, 10 and 1 μM; gel electrophoresis.
The subject of the next data set is hTERT expression. In words: SEAP assay in hTERT-BJ1-PTERT(3.4)-SEAP cells. As to conditions: Homo sapiens, read-out: SEAP (Inhibition μM ± SD). The format is cell-based.

Take `CCN(CC)CCC(=O)Nc1ccc2c(c1)C(=O)c1cc(NC(=O)CCN(CC)CC)ccc1C2=O` [Compound 16, 2,7-Bis[3-(diethylamino)propionamido]anthraquinone]: the “Cellular growth rate (%)” value in the data set on SK-MEL-5 is on record as 82.75%; in the data set with SF-539, 37.15%; in the data set on HCC-2998, −87.42%; in the data set on UO-31, −31.53%; with EKVX, 59.99%; with NCI-H23 it was 30.34%. In addition, the “Cellular growth rate (%)” value with DU-145 was 10.20%; in the data set with CAK1-1, 3.27%; in the data set on TK-10, 17.16%; in the data set on MALME-3M it was 62.39%; in the data set on NCl-H460 it was 9.50%; in the data set with SF-295, −19.91%. Moreover, the “Cellular growth rate (%)” value is recorded as −49.69% in the data set on COLO 205, 3.30% with HT29, 14.01% in the data set on HL-60(TB) and 24.92% with OVCAR-4. For the same molecule, the viability at 48 h, 1 µM in the data set “MTT assay in BJ1 cells” came to 103 ± 2%. Also, in the data set “MTT assay in BJ1 cells”, the viability at 48 h, 10 µM came to 55 ± 3%. Moreover, in “MTT assay in BJ1 cells”, the viability at 48 h, 100 µM was determined as 36 ± 1%. In the data set on telomerase, the “telomerase inhibition effect in TRAP assay” value is “telomerase inhibition effect”. For the same molecule, the activity at 1 µM in the data set with hTERT expression (BJ1, compound concentration 1 μM) was found to be 84 ± 5%. For the same molecule, the activity at 10 µM with hTERT expression (BJ1, compound concentration 10 μM) is 49 ± 3%. Further, the activity at 100 µM in the data set with hTERT expression (BJ1, compound concentration 100 μM) worked out at 37 ± 5%.
In general, melting point refers to the temperature of the solid-liquid transition. `CC(=O)Nc1ccc2c(c1)C(=O)c1cc(NC(C)=O)ccc1C2=O` [Compound 26, 2,7-Bis(acetamido)anthraquinone] returned a melting point of 340 °C. Also, in the data set on SK-MEL-5, the “Cellular growth rate (%)” value worked out at 108.87%. In addition, in the data set on SF-539, the “Cellular growth rate (%)” value was 103.04%. The “Cellular growth rate (%)” value in the data set with HCC-2998 was 105.35%. In addition, the “Cellular growth rate (%)” value with UO-31 worked out at 96.42%. In the data set on EKVX, the “Cellular growth rate (%)” value is reported as 95.28%. In addition, the “Cellular growth rate (%)” value with NCI-H23 was 94.24%. For the same molecule, the “Cellular growth rate (%)” value with DU-145 was determined as 116.79%. The “Cellular growth rate (%)” value with CAK1-1 turned out to be 105.10%. Moreover, in the data set on TK-10, the “Cellular growth rate (%)” value is listed as 118.38%. Moreover, in the data set with MALME-3M, the “Cellular growth rate (%)” value was 111.26%. In addition, the “Cellular growth rate (%)” value in the data set on NCl-H460 was found to be 109.29%. The “Cellular growth rate (%)” value in the data set with SF-295 is 103.25%. In addition, the “Cellular growth rate (%)” value in the data set on COLO 205 is 119.85%. For the same molecule, in the data set with HT29, the “Cellular growth rate (%)” value turned out to be 107.23%. Besides, the “Cellular growth rate (%)” value in the data set with HL-60(TB) is listed as 38.74%. Moreover, the “Cellular growth rate (%)” value with OVCAR-4 came to 103.60%. Besides, in the data set “MTT assay in BJ1 cells”, the viability at 48 h, 1 µM was determined as 106 ± 1%; the viability at 48 h, 10 µM worked out at 91 ± 2%; the viability at 48 h, 100 µM was found to be 91 ± 2%. Further, in the data set on telomerase, the “telomerase inhibition effect in TRAP assay” value was “telomerase inhibition effect”. Also, in the data set with hTERT expression, the activity at 1 µM is 123 ± 5%, the activity at 10 µM was determined as 117 ± 3% and the activity at 100 µM is 117 ± 5%.
